Consider 11 compounds from patent US5585492A, “LTA4 Hydrolase inhibitors” (priority 1994, dated 1996).

Where two headings read alike, the source gives them in different places.

Experiment [1] deals with T1, recombinant human LTA4 hydrolase (Homo sapiens, UniProt P09960).
T1 construct: made in house; host or cells: Spodoptera frugiperda Sf-9 cells, baculovirus (AcNPV) expression vector
T1 sequence (P09960 1-611): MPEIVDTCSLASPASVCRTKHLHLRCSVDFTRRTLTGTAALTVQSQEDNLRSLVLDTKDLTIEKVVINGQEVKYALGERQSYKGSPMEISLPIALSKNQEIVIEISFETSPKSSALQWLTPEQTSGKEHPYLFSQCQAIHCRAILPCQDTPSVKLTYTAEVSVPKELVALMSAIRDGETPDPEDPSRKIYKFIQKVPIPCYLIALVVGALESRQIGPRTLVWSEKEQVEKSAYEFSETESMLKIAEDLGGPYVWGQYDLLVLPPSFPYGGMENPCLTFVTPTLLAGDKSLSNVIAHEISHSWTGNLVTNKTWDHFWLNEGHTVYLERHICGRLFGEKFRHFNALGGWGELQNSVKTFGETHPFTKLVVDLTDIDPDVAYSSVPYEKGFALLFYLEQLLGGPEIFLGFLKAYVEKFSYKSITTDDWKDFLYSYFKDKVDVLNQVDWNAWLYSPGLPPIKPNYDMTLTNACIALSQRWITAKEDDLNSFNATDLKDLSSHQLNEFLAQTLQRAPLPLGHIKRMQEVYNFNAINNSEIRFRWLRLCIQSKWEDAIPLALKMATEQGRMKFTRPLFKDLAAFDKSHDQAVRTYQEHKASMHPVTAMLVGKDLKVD
Description: Recombinant Human LTA4 Hydrolase Assay for LTA4 Hydrolase Inhibitor Activity (LTB4 by enzyme-linked immunoassay). It counts as biochemical. As to conditions: read-out: Recombinant Human LTA4 Hydrolase Assay IC50 LTA4H. The method, then:
Compounds of the present invention were tested for LTA4 hydrolase inhibitor activity against recombinant human LTA4 hydrolase (rhLTA4 H). […] Briefly, LTA4 hydrolase encoding DNA was amplified by polymerase chain reaction using a pair of oligonucleotide primers based on the nucleotide sequence from the 5'-end, and the complement of the 3'-end, of the coding region of the LTA4 hydrolase gene, the nucleotide sequence of which gene is known. […] A λgtll human placental cDNA library (Clonetech, Palo Alto, Calif.) provided the nucleic acid template.
One or more predetermined amounts of a compound of the invention were incubated in assay buffer (0.1M potassium phosphate, 5 mg/ml fatty acid free BSA, 10% DMSO, pH 7.4) for 10 minutes at room temperature with 250 ng of recombinant hLT4 H to allow binding, if any, between the enzyme and inhibitor. The stock enzyme solution was 1 mg/ml LTA4 hydrolase, 50 mM Tris, pH 8.0, 150 mM NaCl, 2.5 mM beta-mercaptoethanol, 50% glycerol. […] LTA4 (i.e., substrate) was prepared from the methyl ester of LTA4 (Biomol, Inc., Plymouth Meeting, Pa.) by treating the methyl ester with 30 molar equivalents of LiOH at room temperature for 18 hours. The LTA4 substrate in its free acid form was kept frozen at -80° C. until needed. […] Each reaction was carried out at room temperature for 10 minutes. The reaction was stopped by diluting 25 μl of the reaction mixture with 500 μl of the assay buffer without DMSO. LTB4 was quantified in the diluted sample by a commercially available enzyme-linked immunoassay [Caymen Chemical Co., Ann Arbor, Mich.] using the method recommended in the manufacturer's instructions and compared to the amount of LTB4 produced in a negative control (i.e., essentially identical conditions except without addition of an inhibitor compound). The IC50 was routinely calculated from the data produced.

The subject of experiment [2] is LTB4 production in human blood. Description: Inhibition of Calcium Ionophore-Induced LTB4 Production in Human Blood (HWB). It is filed as cell-based. As to conditions: Homo sapiens, read-out: Inhibition of Calcium Ionophore-Induced LTB4 Production in Human Blood IC50 HWB.
The test system of experiment [3] is LTB4 production in mouse blood. Description: Murine Ex Vivo LTB4 Inhibition, calcium ionophore stimulated mouse blood after oral gavage. It is filed as in vivo. The following applies: oral gavage, 1 hour. The procedure:
Leukotriene A4 hydrolass inhibitor compounds of the present invention were diluted to a predetermined concentration in phosphate buffered saline containing 2% DMSO and 1% Tween 80. The compounds were administered by oral gavage to adult male outbred mice weighing approximately 20-30 gm at a dose of 10 mg/kg body weight. (Compounds given at a dose of 50 mg/kg body weight are designtated in following Table by the symbol, *.) Sixty (60) minutes after administration of an LTA4 inhibitor compound of the invention, blood was collected (into heparin-containing tubes) from the retroorbital sinus. […] The mixture was incubated for 10 minutes at 37° C. in a humidified incubator. The reaction was terminated by centrifugation (833 g, 10 minutes at 4° C.). Supernatants were analyzed for LTB4 and thromboxane by commercially available enzyme-linked immunoassays [Caymen Chemical Co., Ann Arbor, Mich.] in accordance with the manufacturer's instructions. The percent inhibition was determined by comparison to animals treated identically except that the solution admininstered by oral gavage was devoid of inhibitor compound.

Experiment [4] deals with LTA4 hydrolase. As to conditions: cited from earlier work.
Setting [5] is: human whole blood, A23187 20 mcg/ml.

A word on the IC50: it is the midpoint of a concentration-inhibition curve.

As for `CCOC(=O)CNCCCCOc1ccc(Cc2ccccc2)cc1` [Example 320], the IC50 turned out to be 0.014 µM in experiment [1] and 0.354 µM in experiment [2] (setting [5]). The “Murine Ex Vivo LTB4 Inhibition % I LTB4 at 1 hour after administration of 10 mg/kg” value in experiment [3] turned out to be 85%.
In the same order, the values of `CCOC(=O)CNCCCCCOc1ccc(Cc2ccccc2)cc1` [Example 321] are 0.25 µM, 0.421 µM and 87%.
For the compound `CN(CCCOc1ccc(Cc2ccc(F)cc2)cc1)CCC(=O)O` [Example 336], the results for the IC50 in experiment [1] and in experiment [2] (setting [5]) were 0.031 µM and 0.187 µM, respectively. Moreover, the “Murine Ex Vivo LTB4 Inhibition % I LTB4 at 1 hour after administration of 10 mg/kg” value in experiment [3] is listed as 99%.
Take `c1ccc(Cc2ccc(OCCn3cccc4ncnc3-4)cc2)cc1` [Example 338A]: the half-maximal inhibitory concentration (IC50) was determined as 0.14 µM in experiment [1] and 0.69 µM in experiment [2]. In addition, the “Murine Ex Vivo LTB4 Inhibition % I LTB4 at 1 hour after administration of 10 mg/kg” value in experiment [3] amounted to 22%.
For `c1ccc(Cc2ccc(OCCn3cnc4ncccc43)cc2)cc1` [Example 338B], the IC50 in experiment [1] stood at 0.008 µM; in experiment [2] (setting [5]) it was 0.33 µM. The “Murine Ex Vivo LTB4 Inhibition % I LTB4 at 1 hour after administration of 50 mg/kg (*)” value in experiment [3] (50 mg/kg (*)) was found to be 92%.
As to `Cn1c(=O)c2c(ncn2CCOc2ccc(Cc3ccccc3)cc2)n(C)c1=O` [Example 353], the values for the IC50 in experiment [1] and in experiment [2] (setting [5]) were 0.073 µM and 0.26 µM, respectively. In experiment [3], the “Murine Ex Vivo LTB4 Inhibition % I LTB4 at 1 hour after administration of 10 mg/kg” value is 0%.
The corresponding values for `Nc1ccc2c(c1)ncn2CCOc1ccc(Cc2ccccc2)cc1` [Example 362A] are 5.07 µM, 3.35 µM and 28%.
The corresponding values for `CNC(=O)C1CCN(CCOc2ccc(Cc3ccccc3)cc2)CC1` [Example 420] are 0.057 µM, 0.133 µM and 93%.
In the same order, the values of `NC(=O)N1CCN(CCOc2ccc(Cc3ccccc3)cc2)CC1` [Example 459] are 1.11 µM, 2.4 µM and 44%.
On to `CC(C)C[C@H](NC(=O)[C@@H](O)[C@H](N)Cc1ccccc1)C(=O)O` [bestatin], for which the “LTA4 hydrolase inhibitory activity (in words)” value in experiment [4] was “exhibit LTA4 hydrolase inhibitory activity”.
As for `C[C@H](CS)C(=O)N1CCC[C@H]1C(=O)O` [captopril], the “LTA4 hydrolase inhibitory activity (in words)” value in experiment [4] is reported as “exhibit LTA4 hydrolase inhibitory activity”.
